Measurements taken from patent US11738064B2, “Pharmaceutical composition for preventing and treating eye diseases, containing as active ingredient, fusion protein in which tissue-penetrating peptide and anti-vascular endothelial growth factor preparation are fused” (ILDONG PHARM CO., LTD., priority 2015, dated 2023).
Blank lines part the entries; values can stand above or below the molecule they belong to.

Key:
[1] = biological target: T1, VEGF-A (Homo sapiens, UniProt P15692); details: designed property, versus ranibizumab; cited from earlier work
T1 sequence (P15692 207-395): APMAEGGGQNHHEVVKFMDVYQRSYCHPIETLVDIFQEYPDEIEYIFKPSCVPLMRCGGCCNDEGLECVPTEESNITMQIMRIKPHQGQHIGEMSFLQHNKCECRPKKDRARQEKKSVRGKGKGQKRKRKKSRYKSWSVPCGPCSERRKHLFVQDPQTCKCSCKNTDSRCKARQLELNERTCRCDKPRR

[2] = Ex-vivo ocular penetration model, extracted eyeballs immersed in FITC-conjugated protein; assay type: in vitro ADME, C57BL/6 mouse; details: confocal microscope; FIG. 8E
Description: The eyeballs were fixed at 4° C. for 4 hours using Davidson's solution (glacial acetic acid:ethyl alcohol:neutralized formalin:distilled water=1:3:2:3), and then the anterior tissue of the conjunctiva was partially cut with scissors, and the retinal metaplasia was minimized in a paraffin slide preparation step. After overnight fixation at 4° C. using 10% (v/v) formalin solution, moisture was removed from the tissues by increasing the concentration of alcohol from low to high concentration using an automatic infiltration machine, followed by transparency with xylene and then paraffin penetration. The paraffin penetration-completed tissue was placed in a base mold to make a paraffin block, and 4 sections were prepared using a microtome. The paraffin sections were unfolded to be attached to slides pre-coated with albumin, poly-L-lysine, and saline in a floating constant-temperature water bath. The tissue slides were deparaffinized and then directly mounted, and then FITC was observed using a confocal microscope to investigate the ocular tissue penetration and distribution.
Thereafter, while unconjugated FITC was removed using PD-10 desalting column, the buffer was changed with PBS, and then the purified product was quantified, and used as a sample for efficacy evaluation.

[3] = system: corneal neovascularization; experiment: Corneal neovascularization resistance model; assay type: in vivo, C57BL/6 mice; details: eye drops for 10 days from 10 days after alkaline burn; FIG. 7B
Description: The 6-week old female C57BL/6 mice were used. After anesthesia (Zoletil 40 mg/kg+Rompun 5 mg/kg, IP), the NaOH filter paper was placed on the left eye cornea to induce an alkaline burn for 30 seconds, followed by sufficient washing with 40 ml of PBS, thereby constructing corneal neovascularization animal models. […] Each drug was administered through eye drops at a concentration of 5 mg/ml with 5 μl each time, four times a day for 5 days. After the completion of the administration, the eyeballs were extracted, immersed and fixed in 4% paraformaldehyde solution for one hour, and washed with PBS, and then the cornea was isolated using a dissecting microscope. The isolated cornea was additionally fixed in a 4% paraformaldehyde solution for 12 hours. The fixed cornea was washed with PBS, and subjected to reaction in a blocking buffer (PBS, 0.3% BSA, 0.1% Triton X100) at room temperature for 2 hours. A primary antibody (BD Pharmingen) specific to PECAM-1 (CD31) as a vascular endothelial marker and a primary antibody (Millipore) specific to NG-2 as a pericyte marker were reacted overnight in a refrigerator, and secondary fluorescent antibodies (Alexa Fluor488, Alexa Fluor594, Life Technologies) were reacted at room temperature for 4 hours for tissue staining. […]

[4] = system: choroidal neovascularization; experiment: Laser-induced choroidal neovascularization (CNV) model; assay type: in vivo, Brown Norway (BN) rats; details: 100 μg/eye intraocular, 10 days after administration; FIG. 10B
Description: Seven-week old male Brown Norway (BN) rats (SLC Japan, Tokyo, Japan) were acclimated for one week, and then anesthetized by peritoneal injection of pentobarbital sodium (Hanlim Pharm, 25 mg/kg). Thereafter, the pupil was dilated with 1% tropicamide eye drops, and then six photocoagulation spots were formed around the optic nerve head using a diode laser (wavelength, 532 nm; diameter, 100 μm; power, 150 mW; time period, 0.1 sec). The destruction of Bruch's membrane was verified by the formation of characteristic bubbles. The eyeballs with hemorrhage or no bubbles were excluded from the subsequent experimental procedures. Drugs were administered intraocularly at concentrations appropriate for respective groups using Hamilton syringe (Hamilton, USA). The same amount of vehicle was administered to the CNV group, and 100 μg/eye of ranibizumab was administered as control drug. Subjects with surgical damage caused by drug administration or subjects with lens opacities or the like were excluded from subsequent experimental procedures.
The degree of choroidal neovascularization was evaluated 10 days after drug administration. The eyeball of each rat was extracted, and then incised at a region adjacent to the cornea and sclera under a microscope. […] The sizes of subretinal neovascular areas were analyzed using Image J software (NIH, USA).

[5] = system: vascular leakage; experiment: Oxygen-induced retinopathy (OIR) model, vascular leakage (dextran fluorescence extravasation); assay type: in vivo, C57BL/6 mice; details: 10 μg/eye intraocular on P12, evaluated P17; FIG. 11A
Description: (§1) Mice burn by crossbreeding of 7- to 8-week old C57BL/6 purchased from Koatech were used as experimental animals. On day 7 after birth, mice (postnatal day 7, P7) were placed in an oxygen chamber, and the oxygen concentration in the chamber was adjusted and maintained at 75% (hyperoxia) for 5 days (P7 to P11). The illumination in the laboratory was turned on or off every 12 hours and the temperature was maintained at 24±2° C. The mice were fed with free access to feed and drinking water. After 5 days, the mice were exposed to inner air (normoxia) out of the chamber for 5 days (P12-P17) to induce retinal angiogenesis. For drug administration, the mice were randomly divided into five groups (10 mice per group) immediately after the exposure to normoxia on P12, as shown in Table 7. Drugs were administered intraocularly at concentrations appropriate for respective groups using Hamilton syringe (Hamilton, USA). The same amount of vehicle was administered to the OIR group, and 10 μg/eye of ranibizumab was administered as control drug. Subjects with surgical damage caused by drug administration or subjects with lens opacities or the like were excluded from subsequent experiment procedures.
The degree of retinal edema was evaluated on day 17 after birth. […] The amount of fluorescence extravasated out of vessels was quantitatively analyzed using Image J.

[6] = system: retinal neovascularization; experiment: Oxygen-induced retinopathy (OIR) model, retinal neovascularization (isolectin B4, tufts); assay type: in vivo, C57BL/6 mice; details: 10 μg/eye intraocular; FIG. 12B
Description: as §1
In addition, the extent of neovascularization in the retina was also evaluated. […]

[7] = half-dose (250 μg) dropped 6 times at 2 hour intervals in rabbits; cited from earlier work
[8] = system: macular degeneration; details: cited from earlier work
[9] = cited from earlier work
[10] = biological target: neuropilin 1 (NRP 1); experiment: SPR (Biacore 2000) assay of binding ability to neuropilin 1 receptor; details: Table 4, receptor NRP 1, read-out: Affinity, KD
Description: First, the affinity to a neuropilin receptor was performed on neuropilin 1 (NRP 1). Specifically, surface plasmon resonance (SPR) was performed using Biacore 2000 (GE Healthcare) in order to investigate the binding ability of TPP to the neuropilin 1 domain. Specifically, each neuropilin 1 domain was diluted in 10 mM Na-acetate buffer (pH 4.0), and fixed on CMS sensor chip (GE Healthcare, USA) at about 1,000 response units (RU). […] After the association/dissociation analysis, the CMS chip was regenerated by allowing buffer (20 mM NaOH, 1M NaCl, pH 10.0) to flow at a flow rate of 30 μl/min for 1 minute.
After the Biacore CMS chip was activated with EDC/NHS mixture, target protein NRP1 was diluted in a fixing buffer (10 mM sodium acetate, pH 5.5), and fixed to final 79 Ru through calculation at Rmax: 200.

Chain of neuropilin 1 (NRP 1) (O14786 273-586 limits assumed): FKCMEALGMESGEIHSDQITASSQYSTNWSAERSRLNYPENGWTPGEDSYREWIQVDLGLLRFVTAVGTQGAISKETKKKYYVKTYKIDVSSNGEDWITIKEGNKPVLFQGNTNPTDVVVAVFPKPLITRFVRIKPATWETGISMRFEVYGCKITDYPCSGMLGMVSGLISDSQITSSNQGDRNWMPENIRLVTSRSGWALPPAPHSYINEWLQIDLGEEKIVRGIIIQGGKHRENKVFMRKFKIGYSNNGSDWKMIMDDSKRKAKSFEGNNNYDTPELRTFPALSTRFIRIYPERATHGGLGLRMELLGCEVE

Molecule: aflibercept
- increase in binding ability to VEGF-A [1]: 100 fold

Molecule: ranibizumab
- distribution in cross-section of the ocular retinal tissue [2]: mostly present near the sclera
- neovessel reducing efficacy, in words [3]: no significant efficacy
- inhibition of (neo)vascularization in comparison with the vehicle group [4]: about 31%
- vascular leakage compared to the vehicle group [5]: somewhat reduced
- degree of neovascularization relative to vehicle group, in words [6]: the same degree of neovascularization
- time to reach the retinal tissue after eye drops [7]: 3 to 7 days
- patients with macular degeneration showing response ([8]; at the time of development): about 90%
- responding patients showing a therapeutic effect, such as eyesight improvement ([8]; human, in vivo): 30%

Molecule: conbercept
- bioavailability at the time of applying eye drops [9]: less than 5%

- Kd [10]: 27.9 nM
B1: Sema3A: secreted class 3 semaphorin ligand binding to neuropilin (protein)
chain: NYQNGKNNVPRLKLSYKEMLESNNVITFNGLANSSSYHTFLLDEERSRLYVGAKDHIFSFDLVNIKDFQKIVWPVSYTRRDECKWAGKDILKECANFIKVLKAYNQTHLYACGTGAFHPICTYIEIGHHPEDNIFKLENSHFENGRGKSPYDPKLLTASLLIDGELYSGTAADFMGRDFAIFRTLGHHHPIRTEQHDSRWLNDPKFISAHLISESDNPEDDKVYFFFRENAIDGEHSGKATHARIGQICKNDFGGHRSLVNKWTTFLKARLICSVPGPNGIDTHFDELQDVFLMNFKDPKNPVVYGVFTTSSNIFKGSAVCMYSMSDVRRVFLGPYAHRDGPNYQWVPYQGRVPYPRPGTCPSKTFGGFDSTKDLPDDVITFARSHPAMYNPVFPMNNRPIVIKTDVNYQFTQIVVDRVDAEDGQYDVMFIGTDVGTVLKVVSIPKETWYDLEEVLLEEMTVFREPTAISAMELSTKQQQLYIGSTAGVAQLPLHRCDIYGKACAECCLARDPYCAWDGSACSRYFPTAKRRTRRQDIRNGDPLTHCSDLHHDNHHGHSPEERIIYGVENSSTFLECSPKSQRALVYWQFQRRNEERKEEIRVDDHIIRTDQGLLLRSLQQKDSGNYLCHAVEHGFIQTLLKVTLEVIDTEHLEELLHKDDDGDGSKTKEMSNSMTPSQKVWYRDFMQLINHPNLNTMDEFCEQVWKRDRKQRRQRPGHTPGNSNKWKHLQENKKGRNRRTHEFERAPRSV
